Data taken from US20080004276A1, “Method for treating non-hodgkin's lymphoma” (priority 2006, published 2008).

Tested on: Her2
Assay: IC50 range for inhibition of Her2 degradation (Table 8)
Format: cell-based
Conditions: Homo sapiens
Method: Human high-Her2 breast carcinoma BT474 (HTB-20), SK-BR-3 (HTB-30) and MCF-7 breast carcinoma (HTB-22) from American Type Culture Collection, VA, USA were grown in Dulbecco's modified Eagle's medium with 4 mM L-glutamine and antibiotics (100 IU/ml penicillin and 100 ug/ml streptomycine; GibcoBRL). To obtain exponential cell growth, cells were trypsinized, counted and seeded at a cell density of 0.5×10^6 cells/ml regularly, every 3 days. All experiments were performed on day 1 after cell passage. […]
After treatment with a compound of the invention, cells were washed twice with 1×PBS/1% FBS, and then stained with anti-Her2-FITC (#340553, BD) for 30 min at 4° C. Cells were then washed three times in FACS buffer before the fixation in 0.5 ml 1% paraformadehydrede. Data was acquired on a FACSCalibur system. Isotype-matched controls were used to establish the non-specific staining of samples and to set the fluorescent markers. A total 10,000 events were recorded from each sample. Data were analysed by using CellQuest software (BD Biosciences).

Row | SMILES | IC50 [µM]
1 | Oc1ccc(-c2nnc(S)n2-c2cccc3c2OCCO3)c(O)c1 [Compound 14, 3-(2,4-Dihydroxyphenyl)-4-(2,3-dihydro-benzo[1,4]dioxin-5-yl)-5-mercapto-triazole] | 3 to 10
2 | CC(C)(C)c1cc(-n2c(S)nnc2-c2ccc(O)cc2O)cc(C(C)(C)C)c1 [Compound 61, 3-(2,4-Dihydroxy-phenyl)-4-(3,5-di-tert-butylphenyl)-5-mercapto-triazole] | 10 to 100
3 | Cc1cc(-c2nnc(S)n2-c2cccc3ccccc23)c(O)cc1O [Compound 63, 3-(2,4-Dihydroxy-5-methyl-phenyl)-4-(naphthalene-1-yl)-5-mercapto-triazole] | < 3
4 | CCc1cc(-c2nnc(S)n2-c2cccc3c2ccn3C(C)C)c(O)cc1O [Compound 100, 3-(2,4-Dihydroxy-5-ethyl-phenyl)-4-(1-isopropyl-indol-4-yl)-5-mercapto-triazole] | < 3
5 | O=C(c1ccccc1)c1cccc(-n2c(S)nnc2-c2ccc(O)cc2O)c1 [Compound 64, 3-[2,4-Dihydroxy-phenyl]-4-(3-benzoylphenyl)-5-mercapto-triazole] | 3 to 10
6 | CCc1cc(-c2nnc(S)n2-c2ccc(OC)c3c2ccn3C(C)C)c(O)cc1O [Compound 188, 3-(2,4-Dihydroxy-5-ethyl-phenyl)-4-(1-isopropyl-7-methoxy-indol-4-yl)-5-mercapto-[1,2,4]triazole] | < 3
7 | CCc1cc(-c2nnc(S)n2-c2ccc(OC)c(C(C)(C)C)c2)c(O)cc1O [Compound 186, 3-(2,4-Dihydroxy-5-ethyl-phenyl)-4-(3-t-butyl-4-methoxy-phenyl)-5-mercapto-triazole] | 10 to 100
8 | Oc1ccc(-c2nnc(S)n2-c2cccc(-c3ccccc3)c2)c(O)c1 [Compound 181, 3-(2,4-Dihydroxy-phenyl)-4-(biphenyl-3-yl)-5-mercapto-triazole] | 10 to 100
9 | CCc1cc(-c2nnc(S)n2-c2ccc(OC)c(N(CC)CC)c2)c(O)cc1O [Compound 247, 4-(4-(3-(diethylamino)-4-methoxyphenyl)-5-mercapto-4H-1,2,4-triazol-3-yl)-6-ethylbenzene-1,3-diol] | < 3
10 | Cc1cc(-n2c(S)nnc2-c2ccc(O)cc2O)c2ccccc2n1 [Compound 51, 3-(2,4-Dihydroxyphenyl)-4-(2-methyl-quinolin-4-yl)-5-mercapto-triazole] | 10 to 100
11 | Oc1ccc(-c2nnc(S)n2-c2cccc3c2CCCC3)c(O)c1 [Compound 42, 3-(2,4-Dihydroxyphenyl)-4-(1,2,3,4-tetrahydronaphthalen-5-yl)-5-mercapto-triazole] | 3 to 10
12 | CCc1cc(-c2n[nH]c(O)c2-c2cccc3ccccc23)c(O)cc1O [Compound 348, 4-(naphthalen-1-yl)-3-(5-ethyl-2,4-dihydroxy-phenyl)-5-hydroxy-2H-pyrazole] | 10 to 100
13 | Cc1cc(C)cc(-n2c(S)nnc2-c2ccc(O)cc2O)c1 [Compound 30] | 10 to 100
14 | COc1cccc2c(-n3c(S)nnc3-c3ccc(O)cc3O)cccc12 [Compound 39, 3-(2,4-Dihydroxyphenyl)-4-(5-methoxynaphthalen-1-yl)-5-mercapto-triazole] | < 3
15 | COc1cccc(-n2c(S)nnc2-c2ccc(O)cc2O)c1OC [Compound 93, 3-(2,4-Dihydroxy-phenyl)-4-(2,3-dimethoxy-phenyl)-5-mercapto-triazole] | 3 to 10
16 | Oc1ccc(-c2nnc(S)n2-c2ccc(O)c3ccccc23)c(O)c1 [Compound 87, 3-(2,4-Dihydroxyphenyl)-4-(4-hydroxy-naphthalen-1-yl)-5-mercapto-triazole] | < 3
17 | CC(C)Oc1ccc2c(-n3c(S)nnc3-c3ccc(O)cc3O)cccc2c1 [Compound 9] | 3 to 10
18 | COCCOc1ccc(-n2c(S)nnc2-c2ccc(O)cc2O)c2ccccc12 [Compound 2, 3-(2,4-Dihydroxyphenyl)-4-[4-(2-methoxyethoxy)-naphthalen-1-yl]-5-mercapto-triazole] | 3 to 10
19 | Oc1ccc(-c2nnc(S)n2-c2cccc3cnccc23)c(O)c1 [Compound 70, 3-(2,4-Dihydroxy-phenyl)-4-(isoquinolin-5-yl)-5-mercapto-triazole] | 3 to 10
20 | OCc1cc(O)c(-c2nnc(S)n2-c2cccc3ccccc23)cc1O [Compound 104, 3-(2,5-Dihydroxy-4-hydroxymethyl-phenyl)-4-(naphthalen-1-yl)-5-mercapto-triazole] | 10 to 100
21 | O=C(O)c1cc(O)c(-c2nnc(S)n2-c2cccc3ccccc23)cc1O [Compound 99, 3-(2,5-Dihydroxy-4-carboxy)-4-(naphthalen-1-yl)-5-mercapto-triazole] | 10 to 100
22 | Oc1ccc(-c2nnc(S)n2-c2cccc3[nH]ccc23)c(O)c1 [Compound 95, 3-(2,4-Dihydroxy-phenyl)-4-(indol-4-yl)-5-mercapto-triazole] | < 3

Row | SMILES | IC50 [µM]
23 | Oc1ccc(-c2nnc(S)n2-c2cccc(Cl)c2Cl)c(O)c1 [Compound 38, 3-(2,4-Dihydroxyphenyl)-4-(2,3-dichlorophenyl)-5-mercapto-triazole] | 3 to 10
24 | CCCN(c1cc(-n2c(S)nnc2-c2cc(CC)c(O)cc2O)ccc1OC)C(C)C [Compound 248, 4-(4-(3-(N-isopropyl-N-propylamino)-4-methoxyphenyl)-5-mercapto-4H-1,2,4-triazol-3-yl)-6-ethylbenzene-1,3-diol] | < 3
25 | CCc1cc(-c2nnc(S)n2-c2cccc3c(OC)cccc23)c(O)cc1O [Compound 8, 3-(2,4-Dihydroxy-5-ethyl-phenyl)-4-(5-methoxy-naphthalen-1-yl)-5-mercapto-triazole] | < 3
26 | CC(=O)Oc1ccc(-c2nnc(S)n2-c2cccc3ccccc23)c(OC(C)=O)c1 [Compound 123, 3-(2,4-Diacetoxy-phenyl)-4-(naphthalen-1-yl)-5-mercapto-triazole] | 10 to 100
27 | [O-][n+]1ccc(-c2nnc(S)n2-c2cccc3ccccc23)c(O)c1 [Compound 98, 3-(1-Oxo-3-hydroxy-pyridin-4-yl)-4-(naphthalen-1-yl)-5-mercapto-triazole] | 10 to 100
28 | COc1cccc(-n2c(S)nnc2-c2ccc(O)cc2O)c1 [Compound 21, 3-(2,4-Dihydroxyphenyl)-4-(3-methoxyphenyl)-5-mercapto-triazole] | 10 to 100
29 | Cc1ccc(-n2c(S)nnc2-c2ccc(O)cc2O)c(C)c1 [Compound 28, 3-(2,4-Dihydroxyphenyl)-4-(2,4-dimethyl-phenyl)-5-mercapto-triazole] | 3 to 10
30 | CCc1cc(-c2nnc(S)n2-c2cccc3c(O)cccc23)c(O)cc1O [Compound 178, 3-(2,4-Dihydroxy-5-ethyl-phenyl)-4-(5-hydroxy-naphthalen-1-yl)-5-mercapto-triazole] | < 3
31 | CCc1cc(-c2nnc(S)n2-c2ccc(OC)c(N(C)C(C)C)c2)c(O)cc1O [Compound 249, 4-(4-(3-(N-isopropyl-N-methylamino)-4-methoxyphenyl)-5-mercapto-4H-1,2,4-triazol-3-yl)-6-ethylbenzene-1,3-diol] | < 3
32 | Cc1cccc(-n2c(S)nnc2-c2ccc(O)cc2O)c1C [Compound 34, 3-(2,4-Dihydroxyphenyl)-4-(2,3-dimethylphenyl)-5-mercapto-triazole] | 3 to 10
33 | CC(=O)Oc1ccc(-c2nnc(SC(C)=O)n2-c2cccc3ccccc23)c(OC(C)=O)c1 [Compound 122, 3-(2,4-Diacetoxy-phenyl)-4-(naphthalen-1-yl)-5-(acetylsulfanyl)-triazole] | 3 to 10
34 | CCc1cc(-c2nnc(S)n2-c2ccc3[nH]c(C)c(C)c3c2)c(O)cc1O [Compound 185, 3-(2,4-Dihydroxy-5-ethyl-phenyl)-4-(2,3-dimethyl-indol-5-yl)-5-mercapto-triazole] | < 3
35 | Oc1ccc(-c2nnc(S)n2-c2ccc3c4c(cccc24)CC3)c(O)c1 [Compound 36, 3-(2,4-Dihydroxyphenyl)-4-(acenaphthalen-5-yl)-5-mercapto-triazole] | 3 to 10
36 | Cc1ccc(CO)cc1-n1c(S)nnc1-c1ccc(O)cc1O [Compound 182, 3-(2,4-Dihydroxy-phenyl)-4-(2-methyl-5-hydroxymethyl-phenyl)-5-mercapto-triazole] | 10 to 100
37 | CCc1cc(-c2nnc(S)n2-c2cccc3c2ncn3CC)c(O)cc1O [Compound 102, 3-(2,4-Dihydroxy-5-ethyl-phenyl)-4-(1-ethyl-benzoimidazol-4-yl)-5-mercapto-triazole] | 10 to 100
38 | CCn1ccc2c(-n3c(S)nnc3-c3ccc(O)cc3O)cccc21 [Compound 13, 3-(2,4-Dihydroxyphenyl)-4-(1-ethyl-indol-4-yl)-5-mercapto-triazole] | < 3
39 | CC(C)n1ccc2c(-n3c(S)nnc3-c3ccc(O)cc3O)cccc21 [Compound 88, 3-(2,4-Dihydroxyphenyl)-4-(1-isopropyl-indol-4-yl)-5-mercapto-triazole] | < 3
40 | CCc1cc(-c2nnc(S)n2-c2ccc3c(c2)c(C)c(C)n3C)c(O)cc1O [Compound 103, 3-(2,4-Dihydroxy-5-ethyl-phenyl)-4-(1,2,3-trimethyl-indol-5-yl)-5-mercapto-triazole] | < 3
41 | Oc1cc(O)c(C2CC2)cc1-c1nnc(S)n1-c1cccc2ccccc12 [Compound 189, 3-(2,4-Dihydroxy-5-cyclopropyl-phenyl)-4-(naphthalene-1-yl)-5-mercapto-triazole] | < 3
42 | CCc1cc(-c2nnc(S)n2-c2ccc(OC)c3ccccc23)c(O)cc1O [Compound 76, 3-(2,4-Dihydroxy-5-ethyl-phenyl)-4-(4-methoxy-naphthalen-1-yl)-5-mercapto-triazole] | < 3
43 | COCCn1ccc2c(-n3c(S)nnc3-c3ccc(O)cc3O)cccc21 [Compound 96] | < 3
